Laboratory results from patent US20100311741A1, “Bicyclosulfonyl Acid (BCSA) Compounds and Their Use as Therapeutic Agents” (INHIBOX LTD., priority 2007, published 2010).

**Q.** Which melting point does the source give for `COc1cccc2c1C(CC(=O)NO)N(c1ccccc1)S2(=O)=O` (stereo not shown) [Compound 54.1, 2-(4-Methoxy-1,1-dioxo-2-phenyl-2,3-dihydro-1H-benzo[d]isothiazol-3-yl)-N-hydroxyacetamide] here?
**A.** 188 to 190 °C

**Q.** Which melting point does the source give for `O=C(CC1c2c(Cl)cccc2S(=O)(=O)N1c1ccccc1)NO` (stereo not shown) [Compound 54.2, 2-(4-Chloro-1,1-dioxo-2-phenyl-2,3-dihydro-1H-benzo[d]isothiazol-3-yl)-N-hydroxyacetamide] here?
**A.** 204 to 206 °C

**Q.** With `O=C(CC1c2cccc(C(F)(F)F)c2S(=O)(=O)N1c1ccccc1)NO` (stereo not shown) [Compound 54.3] as the compound, how does the melting point read?
**A.** 187 to 189 °C

**Q.** With `O=C(CC1c2cccc(Cl)c2S(=O)(=O)N1c1ccccc1)NO` (stereo not shown) [Compound 54.7, 2-(7-Chloro-1,1-dioxo-2-phenyl-2,3-dihydro-1H-benzo[d]isothiazol-3-yl)-N-hydroxyacetamide] as the compound, how does the melting point read?
**A.** > 188 °C (dec.)

**Q.** With `COc1cccc2c1S(=O)(=O)N(c1ccccc1)C2CC(=O)NO` (stereo not shown) [Compound 54.10, (7-Methoxy-1,1-dioxo-2-phenyl-2,3-dihydro-1H-benzo[d]isothiazol-3-yl)-N-hydroxyacetamide] as the compound, how does the melting point read?
**A.** > 161 °C (dec.)

**Q.** Which melting point does the source give for `COc1cc(Cl)cc2c1S(=O)(=O)N(c1ccccc1)C2CC(=O)NO` (stereo not shown) [Compound 54.11, (5-Chloro-7-Methoxy-1,1-dioxo-2-phenyl-2,3-dihydro-1H-benzo[d]isothiazol-3-yl)-N-hydroxyacetamide] here?
**A.** > 170 °C (dec.)

**Q.** With `COc1ccc2c(c1Cl)C(CC(=O)NO)N(c1ccccc1)S2(=O)=O` (stereo not shown) [Compound 54.12, (4-Chloro-5-Methoxy-1,1-dioxo-2-phenyl-2,3-dihydro-1H-benzo[d]isothiazol-3-yl)-N-hydroxyacetamide] as the compound, how does the melting point read?
**A.** 184 to 188 °C (dec.)

**Q.** With `O=C(NO)C1c2ccccc2S(=O)(=O)N1c1ccccc1` (stereo not shown) [Compound 62.1, 1,1-Dioxo-2-phenyl-2,3-dihydro-1H-benzo[d]isothiazole-3-carboxylic acid hydroxyamide] as the compound, how does the melting point read?
**A.** 188 to 191 °C

**Q.** For `O=C(NO)C1c2c(Cl)cccc2S(=O)(=O)N1c1ccccc1` (stereo not shown) [Compound 62.2, 4-Chloro-1,1-dioxo-2-phenyl-2,3-dihydro-1H-benzo[d]isothiazole-3-carboxylic acid hydroxyamide], which melting point is on record?
**A.** 167 to 170 °C

**Q.** For `COc1cccc(N2C(CC(=O)NO)c3ccccc3S2(=O)=O)c1` (stereo not shown) [Compound (5.7), 2-[2-(3-Methoxyphenyl)-1,1-dioxo-2,3-dihydro-1H-benzo[d]isothiazol-3-yl]-N-hydroxyacetamide], which melting point is on record?
**A.** 147 to 148 °C

**Q.** For `COc1ccc(N2C(CC(=O)NO)c3ccccc3S2(=O)=O)cc1` (stereo not shown) [Compound (5.8), 2-[2-(4-Methoxyphenyl)-1,1-dioxo-2,3-dihydro-1H-benzo[d]isothiazol-3-yl]-N-hydroxyacetamide], which melting point is on record?
**A.** 185 to 186 °C

**Q.** For `O=C(CC1c2ccccc2S(=O)(=O)N1c1cccc(Oc2ccccc2)c1)NO` (stereo not shown) [Compound (5.9), 2-[2-(3-Phenoxyphenyl)-1,1-dioxo-2,3-dihydro-1H-benzo[d]isothiazol-3-yl]-N-hydroxyacetamide], which melting point is on record?
**A.** 181 to 182 °C

**Q.** Which melting point does the source give for `O=C(CC1c2ccccc2S(=O)(=O)N1c1ccc(Cl)cc1)NO` (stereo not shown) [Compound (5.10), 2-[2-(4-Chlorophenyl)-1,1-dioxo-2,3-dihydro-1H-benzo[d]isothiazol-3-yl]-N-hydroxyacetamide] here?
**A.** 184 to 185 °C

**Q.** With `CSc1ccc(N2C(CC(=O)NO)c3ccccc3S2(=O)=O)cc1` (stereo not shown) [Compound (5.20), 2-[1,1-Dioxo-2-(4-methylsulfanylphenyl)-2,3-dihydro-1H-benzo[d]isothiazol-3-yl]-N-hydroxyacetamide] as the compound, how does the melting point read?
**A.** 197 to 198 °C (dec.)

**Q.** For `O=C(CC1c2ccccc2S(=O)(=O)N1c1ccc(-c2ccccc2)cc1)NO` (stereo not shown) [Compound (5.23), 2-(2-Biphenyl-4-yl-1,1-dioxo-2,3-dihydro-1H-benzo[d]isothiazol-3-yl)-N-hydroxyacetamide], which melting point is on record?
**A.** 207 to 208 °C (dec.)

**Q.** For `O=C(CC1c2ccccc2S(=O)(=O)N1c1ccc(Oc2ccccc2)cc1)NO` (stereo not shown) [Compound (5.24), 2-[1,1-Dioxo-2-(4-phenoxy-phenyl)-2,3-dihydro-1H-benzo[d]isothiazol-3-yl]-N-hydroxyacetamide], which melting point is on record?
**A.** 174 to 175 °C

**Q.** For `O=C(CC1c2ccccc2S(=O)(=O)N1c1ccc(OCc2ccccc2)cc1)NO` (stereo not shown) [Compound (5.25), 2-[2-(4-Benzyloxy-phenyl)-1,1-dioxo-2,3-dihydro-1H-benzo[d]isothiazol-3-yl]-N-hydroxyacetamide], which melting point is on record?
**A.** 186 to 187 °C

**Q.** Which melting point does the source give for `O=C(CC1c2ccccc2S(=O)(=O)N1c1ccc(-n2cccc2)cc1)NO` (stereo not shown) [Compound (5.26), 2-[1,1-Dioxo-2-(4-pyrrol-1-yl-phenyl)-2,3-dihydro-1H-benzo[d]isothiazol-3-yl]-N-hydroxyacetamide] here?
**A.** 192 to 194 °C (dec.)

**Q.** Which melting point does the source give for `O=C(CC1c2ccccc2S(=O)(=O)N1c1ccc(-n2ccnc2)cc1)NO` (stereo not shown) [Compound (5.27), 2-[2-(4-Imidazol-1-yl-phenyl)-1,1-dioxo-2,3-dihydro-1H-benzo[d]isothiazol-3-yl]-N-hydroxyacetamide] here?
**A.** 199 to 201 °C (dec.)

**Q.** With `O=C(CC1c2ccccc2S(=O)(=O)N1c1ccc(-n2cncn2)cc1)NO` (stereo not shown) [Compound (5.28), 2-[1,1-Dioxo-2-(4-[1,2,4]triazol-1-yl-phenyl)-2,3-dihydro-1H-benzo[d]isothiazol-3-yl]-N-hydroxyacetamide] as the compound, how does the melting point read?
**A.** 205 to 207 °C (dec.)

**Q.** For `O=C(CC1c2ccccc2S(=O)(=O)N1c1ccc(-c2cnco2)cc1)NO` (stereo not shown) [Compound (5.29), 2-[2-(4-Oxazol-5-yl-phenyl)-1,1-dioxo-2,3-dihydro-1H-benzo[d]isothiazol-3-yl]-N-hydroxyacetamide], which melting point is on record?
**A.** 138 to 140 °C (dec.)

**Q.** With `Cc1nc(-c2ccc(N3C(CC(=O)NO)c4ccccc4S3(=O)=O)cc2)cs1` (stereo not shown) [Compound (5.30), 2-{2-[4-(2-Methylthiazol-4-yl)phenyl]-1,1-dioxo-2,3-dihydro-1H-benzo[d]isothiazol-3-yl}-N-hydroxyacetamide] as the compound, how does the melting point read?
**A.** 179 to 181 °C (dec.)

**Q.** For `CN(C)c1ccc(N2C(CC(=O)NO)c3ccccc3S2(=O)=O)cc1` (stereo not shown) [Compound (5.31), 2-[2-(4-Dimethylaminophenyl)-1,1-dioxo-2,3-dihydro-1H-benzo[d]isothiazol-3-yl]-N-hydroxyacetamide], which melting point is on record?
**A.** 185 to 186 °C

**Q.** With `O=C(CC1c2ccccc2S(=O)(=O)N1c1ccc(N2CCOCC2)cc1)NO` (stereo not shown) [Compound (5.32), 2-[2-(4-Morpholin-4-ylphenyl)-1,1-dioxo-2,3-dihydro-1H-benzo[d]isothiazol-3-yl]-N-hydroxyacetamide] as the compound, how does the melting point read?
**A.** 204 to 206 °C

**Q.** Which melting point does the source give for `CCOc1ccc(N2C(CC(=O)NO)c3ccccc3S2(=O)=O)cc1` (stereo not shown) [Compound (5.33), 2-[2-(4-Ethoxyphenyl)-1,1-dioxo-2,3-dihydro-1H-benzo[d]isothiazol-3-yl]-N-hydroxyacetamide] here?
**A.** 177 to 178 °C

**Q.** Which melting point does the source give for `CCCCOc1ccc(N2C(CC(=O)NO)c3ccccc3S2(=O)=O)cc1` (stereo not shown) [Compound (5.34), 2-[2-(4-Butoxyphenyl)-1,1-dioxo-2,3-dihydro-1H-benzo[d]isothiazol-3-yl]-N-hydroxyacetamide] here?
**A.** 165 to 166 °C

**Q.** Which melting point does the source give for `O=C(CC1c2ccccc2S(=O)(=O)N1c1cccc(F)c1)NO` (stereo not shown) [Compound (5.36), 2-[2-(3-Fluoro-phenyl)-1,1-dioxo-2,3-dihydro-1H-benzo[d]isothiazol-3-yl]-N-hydroxyacetamide] here?
**A.** 145 to 147 °C (dec.)

**Q.** Which melting point does the source give for `O=C(CC1NS(=O)(=O)c2ccccc21)NO` (stereo not shown) [Compound (5.37), 2-(1,1-Dioxo-2,3-dihydro-1H-benzo[d]isothiazol-3-yl)-N-hydroxyacetamide] here?
**A.** 152 to 154 °C

**Q.** With `COc1ccc(N2C(CC(=O)NO)c3ccccc3S2(=O)=O)cn1` (stereo not shown) [Compound (5.40), 2-[2-(6-Methoxy-pyridin-3-yl)-1,1-dioxo-2,3-dihydro-1Hbenzo[d]isothiazol-3-yl]-N-hydroxyacetamide] as the compound, how does the melting point read?
**A.** 189 to 190 °C

**Q.** Which melting point does the source give for `O=C(CC1c2ccccc2S(=O)(=O)N1C1CCN(Cc2ccccc2)CC1)NO` (stereo not shown) [Compound (5.42), 2-[2-(1-Benzylpiperidin-4-yl)-1,1-dioxo-2,3-dihydro-1H-benzo[d]isothiazol-3-yl]-N-hydroxyacetamide] here?
**A.** 141 to 143 °C

**Q.** For `C=CCOc1ccc(N2C(CC(=O)NO)c3ccccc3S2(=O)=O)cc1` (stereo not shown) [Compound (5.47), 2-[2-(4-Allyloxy-phenyl)-1,1-dioxo-2,3-dihydro-1H-benzo[d]isothiazol-3-yl]-N-hydroxyacetamide], which melting point is on record?
**A.** 166 to 168 °C (dec.)

**Q.** Which melting point does the source give for `O=C(CC1c2ccccc2S(=O)(=O)N1c1ccc(OCc2ccncc2)cc1)NO` (stereo not shown) [Compound (5.48), 2-{1,1-Dioxo-2-[4-(pyridin-4-ylmethoxy)phenyl]-2,3-dihydro-1H-benzo[d]isothiazol-3-yl}-N-hydroxyacetamide] here?
**A.** 212 to 214 °C (dec.)

**Q.** For `O=C(CC1c2ccccc2S(=O)(=O)N1c1ccc(OCc2ccccn2)cc1)NO` (stereo not shown) [Compound (5.50), 2-{1,1-Dioxo-2-[4-(pyridin-2-ylmethoxy)phenyl]-2,3-dihydro-1H-benzo[d]isothiazol-3-yl}-N-hydroxyacetamide], which melting point is on record?
**A.** > 170 °C (dec.)

**Q.** For `CCC#CCOc1ccc(N2C(CC(=O)NO)c3ccccc3S2(=O)=O)cc1` (stereo not shown) [Compound (5.52), 2-[1,1-Dioxo-2-(4-pent-2-ynyloxy-phenyl)-2,3-dihydro-1H-benzo[d]isothiazol-3-yl]-N-hydroxyacetamide], which melting point is on record?
**A.** 135 to 137 °C (dec.)

**Q.** For `C#CCOc1ccc(N2C(CC(=O)NO)c3ccccc3S2(=O)=O)cc1` (stereo not shown) [Compound (5.53), 2-[1,1-Dioxo-2-(4-prop-2-ynyloxy-phenyl)-2,3-dihydro-1H-benzo[d]isothiazol-3-yl]-N-hydroxyacetamide], which melting point is on record?
**A.** 155 to 157 °C (dec.)

**Q.** For `C#CCCOc1ccc(N2C(CC(=O)NO)c3ccccc3S2(=O)=O)cc1` (stereo not shown) [Compound (5.54), 2-[2-(4-But-3-ynyloxy-phenyl)-1,1-dioxo-2,3-dihydro-1H-benzo[d]isothiazol-3-yl]-N-hydroxyacetamide], which melting point is on record?
**A.** 148 to 150 °C (dec.)

**Q.** Which melting point does the source give for `Cc1cc(C(C)Oc2ccc(N3C(CC(=O)NO)c4ccccc4S3(=O)=O)cc2)c2ccccc2n1` (stereo not shown) [Compound (5.56), 2-(2-{4-[1-(2-Methylquinolin-4-yl)ethoxy]-phenyl}-1,1-dioxo-2,3-dihydro-1H-benzo[d]isothiazol-3-yl)-N-hydroxyacetamide] here?
**A.** 200 to 204 °C (dec.)
